The values below come from ChEMBL document CHEMBL2406976, “Discovery of Inhibitors of Burkholderia pseudomallei Methionine Aminopeptidase with Antibacterial Activity” (ACS Med Chem Lett, 2013).

In brackets after ≈: the same amount, converted by molar mass. Activity calls are given as the source filed them. No cut-off for these calls is given here.

Experiment [1] deals with Burkholderia thailandensis. As to the kind of experiment: Antibacterial activity against Burkholderia thailandensis E264 assessed as bacterial growth inhibition at 1 mM after 24 hrs by two-fold dilution method relative to DMSO-treated control. The settings on record: for inhibition of growth at 1000 µM: E264, 24 h, read-out: GI. The format is functional.
Experiment [2] in a line: Inhibition of Burkholderia pseudomallei recombinant methionine aminopeptidase 1 using H-Met-Gly-Pro-7-amino-4-methylcoumarin hydrochloride as substrate measured for 10 mins by fluorescence assay in presence of human recombinant DPP4.
The target in experiment [3] is Methionine aminopeptidase 2 (Homo sapiens, UniProt P50579). Description: Inhibition of human methionine aminopeptidase 2.
Chain of Methionine aminopeptidase 2 (P50579 whole entry): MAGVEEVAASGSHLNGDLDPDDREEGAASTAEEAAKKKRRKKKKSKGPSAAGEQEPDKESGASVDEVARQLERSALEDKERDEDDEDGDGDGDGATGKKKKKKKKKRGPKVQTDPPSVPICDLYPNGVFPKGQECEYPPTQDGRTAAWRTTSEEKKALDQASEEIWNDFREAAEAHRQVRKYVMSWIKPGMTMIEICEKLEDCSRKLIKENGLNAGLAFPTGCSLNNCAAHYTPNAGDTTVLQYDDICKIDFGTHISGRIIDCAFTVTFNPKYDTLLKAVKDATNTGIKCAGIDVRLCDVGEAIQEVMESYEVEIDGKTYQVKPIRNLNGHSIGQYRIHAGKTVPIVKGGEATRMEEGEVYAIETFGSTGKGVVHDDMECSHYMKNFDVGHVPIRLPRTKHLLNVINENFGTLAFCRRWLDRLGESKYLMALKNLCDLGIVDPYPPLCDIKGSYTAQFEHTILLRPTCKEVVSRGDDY
The target in experiment [4] is Methionine aminopeptidase 1 (Homo sapiens, UniProt P53582). As to the kind of experiment: Inhibition of human methionine aminopeptidase 1.
Experiment [5] deals with Burkholderia pseudomallei. Description: Antibacterial activity against Burkholderia pseudomallei Bp340 assessed as bacterial growth inhibition at 31.25 uM after 24 hrs by two-fold dilution method. Format: functional, organism-based.
For experiment [6], the system named is Burkholderia thailandensis. As to the kind of experiment: Antibacterial activity against Burkholderia thailandensis E264 assessed as bacterial growth inhibition after 24 hrs by two-fold dilution method. The format is functional. To be noted: E264, 24 h.
The test system of experiment [7] is Burkholderia thailandensis. Description: Bactericidal activity against Burkholderia thailandensis E264 assessed as cell death after 24 hrs by two-fold dilution method. Format: functional. The settings on record: E264, 24 h.
Experiment [8] has as its system Burkholderia pseudomallei. As to the kind of experiment: Antibacterial activity against Burkholderia pseudomallei 1026b assessed as bacterial growth inhibition after 24 hrs by two-fold dilution method. Format: functional, organism-based.
For experiment [9], the system named is Burkholderia thailandensis. Description: Antibacterial activity against Burkholderia thailandensis E264 assessed as bacterial growth inhibition at 0.5 mM after 24 hrs by two-fold dilution method relative to control. The format is functional.
Experiment [10] relates to Burkholderia thailandensis. Description: Bactericidal activity against Burkholderia thailandensis E264 assessed as cell death at 1 mM after 24 hrs by two-fold dilution method. The format is functional.
In experiment [11] the test system is Burkholderia pseudomallei. As to the kind of experiment: Antibacterial activity against Burkholderia pseudomallei assessed as bacterial growth inhibition. The format is functional.

On to `Nc1nnc(SCc2ccc(F)cc2)[nH]1`, for which, in experiment [1], the inhibition of growth at 1000 µM is at most 26%. Besides, in [2], the IC50 came to 7 µM. In the case of `Cc1ccc2cccc(O)c2n1` [8-HYDROXY QUINALDINE], in experiment [1], the inhibition of growth at 1000 µM was over 50%. The IC50 in [3] and in experiment [4] was over 15 µM each time. Take `Oc1c(CN2CCOCC2)cc(Cl)c2cccnc12`: the inhibition of growth at 1000 µM in experiment [1] is over 50%. Still for that read-out and setting: for `Oc1ccc(Cl)c2cccnc12` [CLOXYQUIN] the value was over 50%. On to `O=[N+]([O-])c1ccc(O)c2ncccc12` [NITROXOLINE], for which the “growth inhibition (GI)” value in [5], in [1] and in experiment [8] was “Active” each time. Also, the minimal inhibitory concentration (MIC) in experiment [6] was 31 µM (≈ 5.89 µg/mL). For the same compound, in experiment [7], the MBC came out at 250 µM (≈ 47.5 µg/mL). Regarding `Oc1c(CN2CCSCC2)cc(Cl)c2cccnc12`, in [1], the inhibition of growth at 1000 µM was over 50%. Regarding `O=[N+]([O-])c1cc(CN2CCCC2)c(O)c2ncccc12`, the “growth inhibition (GI)” value in experiment [1] was “Active”. Also, the IC50 in experiment [2] was found to be 0.03 µM. `Nc1nnc(SCc2ccc(Cl)cc2Cl)[nH]1`: the inhibition of growth at 1000 µM in experiment [1] is at most 26%. For the same compound, the IC50 in experiment [2] turned out to be 1 µM.

Turning to `CN(C)Cc1cc([N+](=O)[O-])c2cccnc2c1O`, in experiment [1], the “growth inhibition (GI)” value is “Active”. For the same compound, the IC50 in experiment [2] is 0.04 µM. In the case of `CC(C)c1ccc(CSc2nnc(N)[nH]2)cc1`, the inhibition of growth at 1000 µM in experiment [1] was at most 26%. Moreover, the IC50 in experiment [2] is over 250 µM. Turning to `O=[N+]([O-])c1cc(CN2CCOCC2)c(O)c2ncccc12`, in experiment [2], the IC50 was 60 µM. With `Nc1nnc(SCc2ccc(F)c(F)c2)[nH]1`, in experiment [1], the inhibition of growth at 1000 µM was at most 26%. Also, the IC50 in experiment [2] is over 250 µM.

As for `Cc1ccc(CSc2nnc(N)[nH]2)cc1`, the inhibition of growth at 1000 µM in experiment [1] is at most 26%. Moreover, in [2], the IC50 was found to be 3.1 µM. In the case of `Oc1c(CN2CCCCC2)cc(Cl)c2cccnc12`, the inhibition of growth at 1000 µM in [1] is over 50%. The IC50 in experiment [4] is over 50 µM. On to `NC[C@H]1O[C@H](O[C@H]2[C@H](O)[C@@H](O[C@H]3O[C@H](CO)[C@@H](O)[C@H](N)[C@H]3O)[C@H](N)C[C@@H]2N)[C@H](O)[C@@H](O)[C@@H]1O`, for which the inhibition result in [9] is “Active”.

Regarding `O=[N+]([O-])c1cc(CN2CCSCC2)c(O)c2ncccc12`, the IC50 in [2] was over 250 µM. For the compound `Oc1cccc2cccnc12` [OXYQUINOLINE], the inhibition of growth at 1000 µM in experiment [1] was over 50%. The same compound came in with an IC50 in [4] of over 15 µM. Turning to `CN1CCN(Cc2cc(Cl)c3cccnc3c2O)CC1`, the inhibition of growth at 1000 µM in experiment [1] was over 50%. Consider `CN1CCN(Cc2cc([N+](=O)[O-])c3cccnc3c2O)CC1`, for which the MIC in [6] was 500 µM (≈ 151 µg/mL). Further, the “growth inhibition (GI)” value in experiment [1] is “Active”. Also, the “growth inhibition (GI)” value in [10] was “inactive”. Also, the half-maximal inhibitory concentration (IC50) in experiment [2] was 0.07 µM. In the case of `O=S(=O)(O)c1ccc(O)c2ncccc12`, the inhibition of growth at 1000 µM in experiment [1] worked out at 9%. For the same compound, in experiment [3], the IC50 is over 15 µM. `CC(C)(O/N=C(\C(=O)N[C@@H]1C(=O)N2C(C(=O)[O-])=C(C[n+]3ccccc3)CS[C@H]12)c1csc(N)n1)C(=O)O` [CEFTAZIDIME]: the MIC in experiment [11] came to 1 µg/mL (≈ 1.83 µM). Take `CC(C)(C)c1ccc(CSc2nnc(N)[nH]2)cc1`: the inhibition of growth at 1000 µM in [1] was at most 26%. Moreover, the IC50 in experiment [2] is over 250 µM.
